These results are taken from patent publication US20110092484A1, “THERAPEUTIC OR PROPHYLACTIC AGENT FOR CEREBRAL ANEURYSM” (NIPPON CHEMIPHAR CO., LTD., priority 2007, published 2011).

SMILES strings stand for the structures. “Also recorded” adds a separate entry of the source.

In data set [1] the test system is experimentally induced cerebral aneurysms. The data set can be described thus: Experimentally induced cerebral aneurysm model, histopathology of the ACA/OA bifurcation. Type of data set: in vivo, SD (Sprague-Dawley) rats. The protocol: After the induction of pentobarbital anesthesia (50 mg/kg), the left common carotid artery and posterior branches of the bilateral renal arteries were ligated at the same time with 10-0 nylon in 7 week-old male SD (Sprague-Dawley) rats. Animals were fed special food containing 8% sodium chloride and 0.12% β-aminopropionitrile (an inhibitor of lysyl oxidase that catalyzes the cross-linking of collagen and elastin). Blood pressure was measured by tail-cuff method. Animal care and experiments complied with Japanese community standards on the care and use of laboratory animals.
A total of 18 rats were orally given 50 mg/kg/day of the inhibitor. Immediately after aneurysm induction, rats were fed food with (n=18) or without (n=21) 50 mg/kg/day of the inhibitor, and sacrificed after three months. The ACA/OA bifurcation was stripped and observed under a light microscope after Elastica van Gieson staining. Early aneurysmal change refers to a lesion with the discontinuity of the internal elastic lamina without apparent outward bulging of the arterial wall. Advanced aneurysm refers to an obvious outward bulging of the arterial wall with the fragmentation or disappearance of the internal elastic lamina. After immunohistochemistry for CD68, the number of CD68-positive cells was counted on each section. Three independent researchers assessed the histopathological changes.
The values were expressed as means Standard deviation (SD). Statistical analysis was performed by using Student's t-test for a two-group comparison and one-way ANOVA followed by Fisher test for a multiple comparison. The incidence of aneurysmal changes was analyzed by the use of Fisher's exact test. Differences were considered statistically significant at P<0.05.

The subject of data set [2] is collagenase IV. The data set can be described thus: Collagenase activity in lysate of the whole Willis ring, type IV collagen. Type of data set: in vivo. Particulars: treated rats n=5, P=0.044. Here is the method:
(§1) One hundred fifty […] of protein was used in one experiment (n=5 in each group). Collagenase activity was measured using Collagenase Activity Measurement Kit (Life Laboratory). Briefly, fluorescence labeled type I or IV collagen was incubated with the lysate of the whole Willis ring for one hour at 37° C. Undigested fluorescence labeled collagen was extracted in ethanol solution and measured by fluorospectrometer with excitation 496 nm and measurement 520 nm. Collgenase activity (U/ml) was calculated by the fluorescence intensity according to the formula given in the manufacture's direction.

In data set [3] the test system is matrix metalloproteases. The data set can be described thus: Inhibition of other proteases. Type of data set: biochemical.
For data set [4], the target named is T1, cathepsin B (Rattus norvegicus, UniProt P00787).
T1 construct: from tissue; host or cells: frozen sections of rat cerebral aneurysmal wall (Sprague-Dawley rats)
T1 sequence (P00787 80-333): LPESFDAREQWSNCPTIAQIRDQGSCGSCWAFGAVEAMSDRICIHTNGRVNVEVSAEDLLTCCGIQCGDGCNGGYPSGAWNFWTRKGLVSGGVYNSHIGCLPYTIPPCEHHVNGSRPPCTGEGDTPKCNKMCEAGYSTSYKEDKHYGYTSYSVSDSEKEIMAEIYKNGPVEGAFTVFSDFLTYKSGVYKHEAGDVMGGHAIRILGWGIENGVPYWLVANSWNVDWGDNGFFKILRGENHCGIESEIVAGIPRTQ
The data set can be described thus: Cathepsin B activity in aneurysmal walls, azo-coupling method (in situ). Type of data set: in vivo. Particulars: three months after aneurysm induction, treated rats. Here is the method:
In order to examine cathepsin B activity in aneurysmal walls, azo-coupling method (in situ) was performed. Three months after aneurysm induction, rats (n=6 in each group) were euthanized as described above. Five μm frozen sections were incubated for one hour at 37° C. with 3.2 mM Z-arg-arg-4-Methoxy-2-Naphthylamine (Cosmo Bio) in 100 mM potassium phosphate buffer containing 10% polyvinyl alcohol, 10 mM dithiothreitol, 2.7 mM L-Cysteine and 1.3 mM EDTA (Sigma). After then, the slides were placed in 125 mg/ml of N-ethylmaleimide in potassium phosphate buffer following at 55° C. for 5 minutes, followed by incubation with Fast Blue Solution (Fast Blue 21 mg/100 ml of potassium phosphate solution, Sigma) for thirty minutes and 0.1M cupric sulfate solution for 15 minutes at room temperature. After washing with physiological saline, the slides were covered with PERMAFLUOR (Immunotec).

Data set [5] concerns CD68-positive cells. The data set can be described thus: Macrophage infiltration around aneurysms (CD68-positive cells counted). Type of data set: in vivo, rats. Particulars: 50 mg/kg/day, n=10; control 5.3±1.5; did not differ. The protocol:
Three months after aneurysm induction, all rats (n=10) were deeply anesthetized and perfused transcardinally with 4% paraformaldehyde. As a control, age-matched male Sprague-Dawley rats were euthanized as described above. The anterior cerebral artery/olfactory artery (ACA/OA) bifurcation was stripped, embedded and cut into 5 μm sections. After blocking with 5% Donkey serum, primary antibodies were incubated for one hour at room temperature followed by incubation with fluorescence labeled secondary antibodies for one hour at room temperature. The secondary antibodies were FITC-conjugated donkey anti-goat IgG antibody, FITC-conjugated donkey anti-rabbit IgG antibody, Cy3-conjugated donkey anti-mouse IgG antibody, and Cy3-conjugated donkey anti-rabbit IgG antibody. Then the slides were covered with PERMAFLUOR (Immunotec) and excited for fluorescence by illumination through a fluorescence microscope system (Olympus). […]
A total of 18 rats were orally given 50 mg/kg/day of the inhibitor. […] After immunohistochemistry for CD68, the number of CD68-positive cells was counted on each section. Three independent researchers assessed the histopathological changes.

Data set [6] has as its target cathepsin B (Homo sapiens, UniProt P07858). Kind of data set: Inhibition of cathepsin B (IC50). Type of data set: biochemical. Particulars: read-out: IC 50 for cathepsin B.
In data set [7] the target is cathepsin S (Homo sapiens, UniProt P25774). Kind of data set: Inhibition of cathepsin S (IC50). Type of data set: biochemical. Particulars: read-out: IC 50 for cathepsin S.
Sequence of cathepsin S (P25774 115-331, species assumed): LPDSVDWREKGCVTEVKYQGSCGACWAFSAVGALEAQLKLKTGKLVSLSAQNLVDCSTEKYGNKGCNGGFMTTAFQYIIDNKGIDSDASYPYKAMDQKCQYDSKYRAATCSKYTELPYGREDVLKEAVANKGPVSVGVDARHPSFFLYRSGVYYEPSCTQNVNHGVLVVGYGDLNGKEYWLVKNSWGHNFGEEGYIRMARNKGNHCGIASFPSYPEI
The nature of data set [8]: Serum concentration of the inhibitor in treated rats. Type of data set: in vivo. Particulars: 50 mg/kg/day orally in food.
For data set [9], the system named is collagenase I. The data set can be described thus: Collagenase activity in lysate of the whole Willis ring, type I collagen. Type of data set: in vivo. Particulars: treated rats n=5, P=0.014. Here is the method: as §1

Consider `CC(C)COC[C@H](CC(C)C)NC(=O)[C@H]1O[C@@H]1C(=O)O` [cysteine protease inhibitor, monosodium (2S,3S)-3-[[(1S)-1-isobutoxymethyl-3-methylbutyl]carbamoyl]-oxirane-2-carboxylate], for which the “Rats that developed advanced aneurysms” value in data set [1] (50 mg/kg/day in food, three months after aneurysm induction, control 19 of 21) is on record as 5 of 10. Further, the “Rats that showed early aneurysmal changes” value in data set [1] (50 mg/kg/day in food, three months after aneurysm induction, of 10 rats, control 2 of 21) amounted to 4 rats. For the same molecule, the “Incidence of all aneurysmal changes versus control group” value in data set [1] (50 mg/kg/day, three months) is recorded as “not different”. Further, in data set [1] (50 mg/kg/day, three months, P=0.022), the “Rate (incidence) of advanced aneurysms versus control group” value is reported as “significantly lower; also recorded: dramatically reduced”. Also, the “Collagenase IV activity versus control group” value in data set [2] is listed as “significantly lower”. In addition, the “Inhibition of other proteases such as matrix metalloproteases” value in [3] was “did not inhibit”. Besides, in data set [4], the “Cathepsin B activity at the aneurysmal walls versus untreated aneurysm rats” value was “reduced”. Moreover, the “Macrophage infiltration per 50 μm×50 μm field around aneurysms” value in data set [5] is listed as 4.9±1.7 cells/field. Moreover, the IC50 amounted to 284 nM in [6] and 186 nM in data set [7]. Further, the Serum concentration in data set [8] came out at 628.5 ± 22.3 nmol/L. Moreover, in [9], the “Collagenase I activity versus control group” value was “significantly lower”.
